Data as given in US20260022142A1, “MACROCYCLIC IMMUNOMODULATORS” (Bristol-Myers Squibb Company, priority 2022, published 2026).
Bridge positions count the residues as written; N and C are the ends. Square brackets hold non-standard residues; d marks the D form. Peptide text beside a SMILES is read from it. * marks the point of attachment. ξ: configuration not given here. Ala(indol-2-yl) = N[C@@H](Cc1cc2ccccc2[nH]1)C(=O)O; Phe(3-CF3) = N[C@@H](Cc1cccc(C(F)(F)F)c1)C(=O)O; Ala(morpholin-4-yl) = N[C@@H](CN1CCOCC1)C(=O)O; Phe(4-COOH) = N[C@@H](Cc1ccc(C(=O)O)cc1)C(=O)O; Bip = N[C@@H](Cc1ccc(-c2ccccc2)cc1)C(=O)O; NH(CH2)14COOH = O=C(O)CCCCCCCCCCCCCCN*; Phe(3-Me) = Cc1cccc(C[C@H](N)C(=O)O)c1; Val(3-OH) = CC(C)(O)[C@H](N)C(=O)O; hArg = N=C(N)NCCCC[C@H](N)C(=O)O; 4Pal = N[C@@H](Cc1ccncc1)C(=O)O; Cha = N[C@@H](CC1CCCCC1)C(=O)O; Thr(3ξ) = CC(O)[C@H](N)C(=O)O; dNle = CCCC[C@@H](N)C(=O)O; Carboxymethyl = O=C(O)C*; Orn = NCCC[C@H](N)C(=O)O; Pra = C#CC[C@H](N)C(=O)O; Aun = NCCCCCCCCCCC(=O)O; Dab = NCC[C@H](N)C(=O)O; Dap = NC[C@H](N)C(=O)O; AEEA = NCCOCCOCC(=O)O

molecular target: T1, PD-1/PD-L1 interaction (PE-labeled human PD-L1-Ig binding to Jurkat cell line over-expressing human PD-1) (Homo sapiens, UniProt Q15116); assay: Jurkat-PD-1 Cell Binding High-Content Screening Assay (CBA); assay type: cell-based; conditions: Jurkat cell line over-expressing human PD-1; PE-labeled PD-L1-Ig 20 nM final; read-out: Jurkat hPD1-PDL1 IC50
T1 construct: expressed in transfected cells; host or cells: Jurkat
In short: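 Human PD-L1-Ig carrying a covalent PE label on its Ig tag serves as the probe, applied at 20 nM final to compound-treated (2 h, 37° C) Jurkat-hPD-1 cells in medium with 10% fetal calf serum. After one hour, fixation and nuclear staining precede high-content image analysis.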

T1 sequence (Q15116 25-288): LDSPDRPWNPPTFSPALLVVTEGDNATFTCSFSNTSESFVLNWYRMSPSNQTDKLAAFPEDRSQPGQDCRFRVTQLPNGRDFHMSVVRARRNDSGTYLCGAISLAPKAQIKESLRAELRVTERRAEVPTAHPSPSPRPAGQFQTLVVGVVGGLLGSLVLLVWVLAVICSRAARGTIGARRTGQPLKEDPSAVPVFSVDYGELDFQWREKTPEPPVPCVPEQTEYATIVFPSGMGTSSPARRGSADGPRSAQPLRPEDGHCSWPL

| Structure (SMILES) | IC50 [nM] |
| --- | --- |
| CC(C)C[C@@H]1NC(=O)[C@H](Cc2c[nH]c3ccccc23)NC(=O)[C@H](CC(=O)O)NC(=O)[C@H](Cc2ccc(OCC(=O)O)cc2)NC(=O)[C@H](CCN)NC(=O)CSC[C@@H](C(=O)NCCOCCOCC(=O)NCCCCCCCCCCC(=O)O)NC(=O)[C@H](C(C)O)NC(=O)[C@H](C(C)C)NC(=O)[C@H](CC2CCCCC2)NC(=O)[C@H](Cc2cnc[nH]2)NC(=O)[C@@H](CC(C)C)NC(=O)[C@H](CCCN)NC(=O)[C@H](C(C)C)NC(=O)[C@H](Cc2ccc(-c3ccccc3)cc2)NC1=O (stereo partly drawn) [Compound 3700] ({CH2CO}-[Dab]Y(Carboxymethyl)DWL[Bip]V[Orn][dL]H[Cha]V[Thr(3ξ)]C[AEEA][Aun]-OH; thioether N-14) | 56.7 |
| C#CC[C@H](NC(=O)COCCOCCNC(=O)[C@@H]1CSCC(=O)N[C@@H](Cc2ccncc2)C(=O)N[C@@H](Cc2ccc(OCC(=O)O)cc2)C(=O)N[C@@H](CC(=O)O)C(=O)N[C@@H](Cc2c[nH]c3ccccc23)C(=O)N[C@@H](C(C)C)C(=O)N[C@@H](Cc2ccc(-c3ccccc3)cc2)C(=O)N[C@@H]([C@@H](C)CC)C(=O)N[C@@H](CCCN)C(=O)N[C@H](CC(C)C)C(=O)N[C@@H](CCN)C(=O)N[C@@H](CC(C)C)C(=O)N[C@@H](C(C)C)C(=O)N[C@@H]([C@@H](C)O)C(=O)N1)C(=O)N[C@@H](Cc1cnc[nH]1)C(=O)NCCCCCCCCCCC(=O)O [Compound 1216] ({CH2CO}-[4Pal]Y(Carboxymethyl)DWV[Bip]I[Orn][dL][Dab]LVTC[AEEA][Pra]H[Aun]-OH; thioether N-14) | 16.5 |
| Cc1cccc(C[C@@H]2NC(=O)[C@H](CC(=O)O)NC(=O)[C@H](Cc3ccc(OCC(=O)O)cc3)NC(=O)[C@H](CN)NC(=O)CSC[C@@H](C(=O)N[C@@H](C)C(=O)N[C@@H](CCCN)C(=O)N[C@H](CO)C(=O)NCCCCCCCCCCC(=O)O)NC(=O)[C@H]([C@@H](C)O)NC(=O)[C@H](C(C)C)NC(=O)[C@H](CC3CCCCC3)NC(=O)[C@H](CCN)NC(=O)[C@@H](CC(C)C)NC(=O)[C@H](CCCN)NC(=O)[C@H](CCCNC(=N)N)NC(=O)[C@H](Cc3ccc(-c4ccccc4)cc3)NC(=O)[C@H](C(C)C)NC2=O)c1 [Compound 2016] ({CH2CO}-[Dap]Y(Carboxymethyl)D[Phe(3-Me)]V[Bip]R[Orn][dL][Dab][Cha]VTCA[Orn][dS][Aun]-OH; thioether N-14) | 17.6 |
| Cc1cccc(C[C@@H]2NC(=O)[C@H](CC(=O)O)NC(=O)[C@H](Cc3ccc(OCC(=O)O)cc3)NC(=O)[C@H](Cc3ccncc3)NC(=O)CSC[C@@H](C(=O)N[C@@H](CCN)C(=O)NCCCCCCCCCCC(=O)O)NC(=O)[C@H](CO)NC(=O)[C@H](C(C)(C)O)NC(=O)[C@H](CC3CCCCC3)NC(=O)[C@H](CCN)NC(=O)[C@@H](CC(C)C)NC(=O)[C@H](CCCN)NC(=O)[C@H](Cc3ccc(OCC(=O)O)cc3)NC(=O)[C@H](Cc3ccc(-c4ccccc4)cc3)NC(=O)[C@H](C(C)(C)O)NC2=O)c1 [Compound 2187] ({CH2CO}-[4Pal]Y(Carboxymethyl)D[Phe(3-Me)][Val(3-OH)][Bip]Y(Carboxymethyl)[Orn][dL][Dab][Cha][Val(3-OH)]SC[Dab][Aun]-OH; thioether N-14) | 31.3 |
| CC(C)C[C@H]1NC(=O)[C@H](CCCN)NC(=O)[C@H](Cc2ccc(C(=O)O)cc2)NC(=O)[C@H](Cc2ccc(-c3ccccc3)cc2)NC(=O)[C@H](Cc2ccc(C(=O)O)cc2)NC(=O)[C@H](Cc2cccc(C(F)(F)F)c2)NC(=O)[C@H](CC(=O)O)NC(=O)[C@H](Cc2ccc(OCC(=O)O)cc2)NC(=O)[C@H](CN2CCOCC2)NC(=O)CSC[C@@H](C(=O)N[C@@H](CCN)C(=O)NCCCCCCCCCCCCCCC(=O)O)NC(=O)[C@H](CO)NC(=O)[C@H](C(C)(C)O)NC(=O)[C@H](CC2CCCCC2)NC(=O)[C@H](CCN)NC1=O [Compound 2919] ({CH2CO}-[Ala(morpholin-4-yl)]Y(Carboxymethyl)D[Phe(3-CF3)][Phe(4-COOH)][Bip][Phe(4-COOH)][Orn][dL][Dab][Cha][Val(3-OH)]SC[Dab]-{NH(CH2)14COOH}; thioether N-14) | 372 |
| CC(C)C[C@@H]1NC(=O)[C@H](Cc2c[nH]c3ccccc23)NC(=O)[C@H](CC(=O)O)NC(=O)[C@H](Cc2ccc(OCC(=O)O)cc2)NC(=O)[C@H](CN)NC(=O)CSC[C@@H](C(=O)NCCOCCOCC(=O)NCCCCCCCCCCC(=O)O)NC(=O)[C@H](Cc2cnc[nH]2)NC(=O)[C@H](C(C)O)NC(=O)[C@H](CC2CCCCC2)NC(=O)[C@H](CCN)NC(=O)[C@@H](CC(C)C)NC(=O)[C@H](CCCN)NC(=O)[C@H](C(C)C)NC(=O)[C@H](Cc2ccc(-c3ccccc3)cc2)NC1=O (stereo partly drawn) [Compound 3692] ({CH2CO}-[Dap]Y(Carboxymethyl)DWL[Bip]V[Orn][dL][Dab][Cha][Thr(3ξ)]HC[AEEA][Aun]-OH; thioether N-14) | 58.4 |
| CC(C)C[C@H]1NC(=O)[C@H](CCCN)NC(=O)[C@H](Cc2ccc(C(=O)O)cc2)NC(=O)[C@H](Cc2ccc(-c3ccccc3)cc2)NC(=O)[C@H](Cc2ccc(C(=O)O)cc2)NC(=O)[C@H](Cc2cccc(C(F)(F)F)c2)NC(=O)[C@H](CC(=O)O)NC(=O)[C@H](Cc2ccc(OCC(=O)O)cc2)NC(=O)[C@H](CO)NC(=O)CSC[C@@H](C(=O)N[C@@H](CCN)C(=O)NCCOCCOCC(=O)N[C@@H](CO)C(=O)N[C@@H](CO)C(=O)N[C@@H](CO)C(=O)N[C@@H](CO)C(=O)N[C@@H](CCC(=O)NCCCCCCCCCCCCCCC(=O)O)C(=O)O)NC(=O)[C@H](CO)NC(=O)[C@H](C(C)(C)O)NC(=O)[C@H](CC2CCCCC2)NC(=O)[C@H](CCN)NC1=O [Compound 3900] ({CH2CO}-SY(Carboxymethyl)D[Phe(3-CF3)][Phe(4-COOH)][Bip][Phe(4-COOH)][Orn][dL][Dab][Cha][Val(3-OH)]SC[Dab][AEEA]SSSSE(NH(CH2)14COOH)-OH; thioether N-14) | 185 |
| C#CC[C@H](NC(=O)COCCOCCNC(=O)[C@H](CCCN)NC(=O)[C@@H]1CSCC(=O)N[C@@H](Cc2ccncc2)C(=O)N[C@@H](Cc2ccc(OCC(=O)O)cc2)C(=O)N[C@@H](CC(=O)O)C(=O)N[C@@H](Cc2c[nH]c3ccccc23)C(=O)N[C@@H](C(C)C)C(=O)N[C@@H](Cc2ccc(-c3ccccc3)cc2)C(=O)N[C@@H]([C@@H](C)CC)C(=O)N[C@@H](CCCN)C(=O)N[C@H](CC(C)C)C(=O)N[C@@H](CCN)C(=O)N[C@@H](CC(C)C)C(=O)N[C@@H](C(C)C)C(=O)N[C@@H]([C@@H](C)O)C(=O)N1)C(=O)NCCCCCCCCCCC(=O)O [Compound 1207] ({CH2CO}-[4Pal]Y(Carboxymethyl)DWV[Bip]I[Orn][dL][Dab]LVTC[Orn][AEEA][Pra][Aun]-OH; thioether N-14) | 28.5 |

Stronger by IC50, values ahead:

| IC50 [nM] | Structure (SMILES) |
| --- | --- |
| 15.2 | CCCC[C@H]1NC(=O)[C@H](CCCN)NC(=O)[C@H](C(C)C)NC(=O)[C@H](Cc2ccc(-c3ccccc3)cc2)NC(=O)[C@H](C(C)C)NC(=O)[C@H](Cc2cc3ccccc3[nH]2)NC(=O)[C@H](CC(=O)O)NC(=O)[C@H](Cc2ccc(OCC(=O)O)cc2)NC(=O)[C@H](CN)NC(=O)CSC[C@@H](C(=O)N[C@@H](CCN)C(=O)NCCOCCOCC(=O)NCCCCCCCCCCC(=O)O)NC(=O)[C@H](CCCCN)NC(=O)[C@H](C(C)C)NC(=O)[C@H](CC2CCCCC2)NC(=O)[C@H](CCN)NC1=O [Compound 2678] ({CH2CO}-[Dap]Y(Carboxymethyl)D[Ala(indol-2-yl)]V[Bip]V[Orn][dNle][Dab][Cha]VKC[Dab][AEEA][Aun]-OH; thioether N-14) |
| 12 | CCCC[C@H]1NC(=O)[C@H](CCCN)NC(=O)[C@H](C(C)C)NC(=O)[C@H](Cc2ccc(-c3ccccc3)cc2)NC(=O)[C@H](C(C)C)NC(=O)[C@H](Cc2cccc(C)c2)NC(=O)[C@H](CC(=O)O)NC(=O)[C@H](Cc2ccc(OCC(=O)O)cc2)NC(=O)[C@H](CN)NC(=O)CSC[C@@H](C(=O)NCCOCCOCC(=O)N[C@@H](CCN)C(=O)NCCCCCCCCCCC(=O)O)NC(=O)[C@H](CN)NC(=O)[C@H](C(C)C)NC(=O)[C@H](CC2CCCCC2)NC(=O)[C@H](CCN)NC1=O [Compound 2674] ({CH2CO}-[Dap]Y(Carboxymethyl)D[Phe(3-Me)]V[Bip]V[Orn][dNle][Dab][Cha]V[Dap]C[AEEA][Dab][Aun]-OH; thioether N-14) |
| 10.9 | CC(C)C[C@H]1NC(=O)[C@H](CCCN)NC(=O)[C@H](C(C)C)NC(=O)[C@H](Cc2ccc(-c3ccccc3)cc2)NC(=O)[C@H](C(C)C)NC(=O)[C@H](Cc2c[nH]c3ccccc23)NC(=O)[C@H](CC(=O)O)NC(=O)[C@H](Cc2ccc(OCC(=O)O)cc2)NC(=O)[C@H](Cc2ccc(OCC(=O)O)cc2)NC(=O)CSC[C@@H](C(=O)N[C@@H](CCCCN)C(=O)NCCOCCOCC(=O)NCCCCCCCCCCC(=O)O)NC(=O)[C@H](CN)NC(=O)[C@H](C(C)C)NC(=O)[C@H](CC2CCCCC2)NC(=O)[C@H](CCN)NC1=O [Compound 2530] ({CH2CO}-Y(Carboxymethyl)Y(Carboxymethyl)DWV[Bip]V[Orn][dL][Dab][Cha]V[Dap]CK[AEEA][Aun]-OH; thioether N-14) |
| 10 | CC(C)C[C@H]1NC(=O)[C@H](CCCN)NC(=O)[C@H](Cc2ccc(O)cc2)NC(=O)[C@H](Cc2ccc(-c3ccccc3)cc2)NC(=O)[C@H](C(C)C)NC(=O)[C@H](Cc2c[nH]c3ccccc23)NC(=O)[C@H](CC(=O)O)NC(=O)[C@H](Cc2ccc(OCC(=O)O)cc2)NC(=O)[C@H](CCCCNC(=N)N)NC(=O)CSC[C@@H](C(=O)N[C@@H](CCN)C(=O)NCCCCCCCCCCC(=O)O)NC(=O)[C@H](CCC(=O)O)NC(=O)[C@H](C(C)C)NC(=O)[C@H](CC2CCCCC2)NC(=O)[C@H](CCN)NC1=O [Compound 3395] ({CH2CO}-[hArg]Y(Carboxymethyl)DWV[Bip]Y[Orn][dL][Dab][Cha]VEC[Dab][Aun]-OH; thioether N-14) |
